Experimental data taken from the supplement of paper PMC10307832.

Experiments:
Experiment in all cases: relative viability (nuclei count vs DMSO), 5 days (fraction); higher = more cells survive
[1] = compound: CCn1c(-c2nonc2N)nc2cnc(Oc3cccc(NC(=O)c4ccc(OCCN5CCOCC5)cc4)c3)cc21 + COc1cccc2cc(-c3nc([C@H]4CC[C@H](C(=O)O)CC4)n4ncnc(N)c34)[nH]c12 [OSI-027] (partner 0.5 µM)
Summary of the method: (§1)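 Lung cancer cell lines in 1536-well plates were dosed by pin tool the day after seeding, either with one drug alone or with a fixed anchor-drug dose plus five library-drug doses (not always all listed) in √10 steps. After 5 days, cells were fixed and their nuclei stained in one step (final 0.05% Triton X-100, 1% formaldehyde, 1 ug/ml Hoechst), then counted on 4× images. Relative viability is the nuclei count in treated wells divided by that in vehicle wells. Values are medians of duplicate plates.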

Mirin + Palbociclib = compound: N=C1NC(=O)/C(=C/c2ccc(O)cc2)S1 [Mirin] + CC(=O)c1c(C)c2cnc(Nc3ccc(N4CCNCC4)cn3)nc2n(C2CCCC2)c1=O [Palbociclib] (partner 0.5 µM)
Summary of the method: as §1

Mirin + Foretinib = compound: N=C1NC(=O)/C(=C/c2ccc(O)cc2)S1 [Mirin] + COc1cc2c(Oc3ccc(NC(=O)C4(C(=O)Nc5ccc(F)cc5)CC4)cc3F)ccnc2cc1OCCCN1CCOCC1 [Foretinib] (partner 0.25 µM)
Summary of the method: as §1

Mirin + Pictilisib = compound: N=C1NC(=O)/C(=C/c2ccc(O)cc2)S1 [Mirin] + CS(=O)(=O)N1CCN(Cc2cc3nc(-c4cccc5[nH]ncc45)nc(N4CCOCC4)c3s2)CC1 [Pictilisib] (partner 1 µM)
Summary of the method: as §1

| Cell Line | relative viability ([1]; first compound 0.04 µM) | relative viability ([1]; first compound 0.1265 µM) | relative viability ([1]; first compound 0.4 µM) | relative viability ([1]; first compound 1.265 µM) | relative viability ([1]; first compound 4 µM) | relative viability (Mirin + Palbociclib; first compound 0.25 µM) | relative viability (Mirin + Palbociclib; first compound 2.5 µM) | relative viability (Mirin + Palbociclib; first compound 7.906 µM) | relative viability (Mirin + Palbociclib; first compound 25 µM) | relative viability (Mirin + Foretinib; first compound 0.25 µM) | relative viability (Mirin + Foretinib; first compound 0.7906 µM) | relative viability (Mirin + Foretinib; first compound 2.5 µM) | relative viability (Mirin + Foretinib; first compound 7.906 µM) | relative viability (Mirin + Foretinib; first compound 25 µM) | relative viability (Mirin + Pictilisib; first compound 0.25 µM) | relative viability (Mirin + Pictilisib; first compound 0.7906 µM) | relative viability (Mirin + Pictilisib; first compound 2.5 µM) | relative viability (Mirin + Pictilisib; first compound 7.906 µM) | relative viability (Mirin + Pictilisib; first compound 25 µM) | relative viability (Mirin + Palbociclib; first compound 0.7906 µM) |
| --- | --- | --- | --- | --- | --- | --- | --- | --- | --- | --- | --- | --- | --- | --- | --- | --- | --- | --- | --- | --- |
| NCI-H2405 | 0.763 | 0.582 | 0.185 | 0.326 | 0.354 | 0.512 | 0.526 | 0.568 | 0.511 | 1.04 | 1.04 | 1.01 | 1.03 | 1.07 | 0.465 | 0.51 | 0.401 | 0.307 | 0.317 | – |
| NCI-H3122 | 1.4 | 0.961 | 0.729 | 0.326 | 0.737 | 0.192 | 0.199 | 0.166 | 0.165 | 0.919 | 0.906 | 0.934 | 1.08 | 1.09 | 0.541 | 0.515 | 0.576 | 0.673 | 0.7 | 0.197 |
| PC-3 [JPC-3] | 0.838 | 0.802 | 0.701 | 0.773 | 0.656 | 0.596 | 0.551 | 0.524 | 0.631 | 1.05 | 1.13 | 1.02 | 1.14 | 1.3 | 0.678 | 0.73 | 0.731 | 0.702 | 0.706 | 0.574 |
| PC-14 | 0.796 | 0.693 | 0.586 | 0.715 | 0.685 | 0.528 | 0.508 | 0.512 | 0.522 | 0.968 | 0.833 | 1.09 | 0.929 | 1.02 | 0.658 | 0.568 | 0.68 | 0.797 | 0.933 | 0.558 |
| RERF-LC-KJ | 0.625 | 0.496 | 0.38 | 0.371 | 0.389 | 1.14 | 1.2 | 1.2 | 1.1 | 0.974 | 0.915 | 0.932 | 0.892 | 0.901 | 0.716 | 0.518 | 0.563 | 0.594 | 0.439 | 1.09 |
| SK-LU-1 | 0.359 | 0.322 | 0.216 | 0.199 | 0.22 | 0.433 | 0.417 | 0.348 | 0.405 | 0.801 | 0.924 | 0.863 | 0.728 | 0.731 | 0.742 | 0.555 | 0.588 | 0.464 | 0.328 | 0.393 |
| SK-MES-1 | 0.651 | 0.601 | 0.403 | 0.386 | 0.359 | 0.305 | 0.303 | 0.3 | 0.451 | 0.859 | 1.07 | 0.914 | 0.945 | 1.31 | 0.319 | 0.376 | 0.379 | 0.502 | 0.46 | 0.338 |
| SW 1573 | 0.835 | 0.594 | 0.299 | 0.326 | 0.237 | 0.366 | 0.375 | 0.42 | 0.292 | 0.82 | 0.822 | 0.892 | 0.76 | 0.981 | 0.473 | – | 0.466 | 0.355 | 0.289 | 0.42 |
